Like-named read-outs stand apart in the source and are kept apart here.
How the values were obtained:
HER3 = target: T1, HER3 (Homo sapiens, UniProt P21860); assay: HER3/ERBB3 degradation (western blot, OVCAR8 cells); assay type: cell-based
T1 construct: endogenous in cells; host or cells: OVCAR8
Description: FIG. 10 illustrates a Western blot of Compound 102-related degradation of ERBB3.
In various embodiments, treatment with PROTAC was performed in one of two ways: 1) For experiments involving >16 h exposure to compound, a 1000× stock was added to cells followed by gentle agitation; 2) For shorter treatments, a 2× stock was added to an equal volume of cells to ensure uniform drug exposure. For immortalized cell lines, 2×10^6 cells per treatment condition were collected and washed once with ice cold PBS (IX), followed by lysis in buffer containing 20 mM Tris [pH 8.0], 0.25% sodium deoxycholate, 1% Triton X-100, supplemented with protease (Roche) and phosphatase inhibitors (10 mM NaF, 2 mM Na3VO4, 10 mM β-glycerophosphate, 10 mM Na-pyrophosphate). Lysates were spun at 15,000×g for 10 min at 4° C. and supernatant was quantified for total protein content using the Pierce BCA Protein Assay (Thermo Fisher Scientific). 30 μg of protein was loaded onto 12% SDS-PAGE gels or 4-15% Mini-PROTEAN TGX precast gradient gels (Bio-Rad), transferred onto nitrocellulose membranes, and probed with the specified primary antibodies overnight with rocking at 4° C. in 1×TBS-T containing 5% non-fat milk.
(§1) Either anti-rabbit or anti-mouse HRP-conjugated secondary antibodies (Pierce) were incubated with the membranes for 1 h at room temperature at 1:10,000 dilutions in 5% non-fat milk in IX TBS-T. Imaging was performed using the ECL Prime chemiluminescent western blot detection reagents (Amersham) followed by visualization with the Bio-Rad ChemiDoc imaging instrument. All western blots were subsequently processed and quantified using the accompanying Bio-Rad Image Lab software. Primary antibodies used were: Anti-actin antibody (Cat. #MA 1-744) purchased from ThermoFisher Scientific; anti-BTK (Cat. #8547), anti-pBTK (Y223, Cat. #5082), anti-ITK (Cat. #2380), anti-GAPDH (Cat. #5179), anti-IKZF1 (Cat. #9034), and anti-IKZF3 (Cat. #15103) antibodies purchased from Cell Signaling Technology. All antibodies were used at 1:1,000 dilutions in 5% non-fat milk in 1×TBS-Tween (TBS-T) or Blotto blocker (Thermo Scientific) unless otherwise noted in supplier specifications.

BTK = BTK (Homo sapiens, UniProt Q06187); assay: BTK degradation in NAMALWA cells (immunoblot); assay type: cell-based; set-up: host or cells: NAMALWA; conditions: for DC50: concentration needed to degrade 50% of the total pool of BTK; for Max: maximal BTK degradation
Sequence of BTK (Q06187 whole entry): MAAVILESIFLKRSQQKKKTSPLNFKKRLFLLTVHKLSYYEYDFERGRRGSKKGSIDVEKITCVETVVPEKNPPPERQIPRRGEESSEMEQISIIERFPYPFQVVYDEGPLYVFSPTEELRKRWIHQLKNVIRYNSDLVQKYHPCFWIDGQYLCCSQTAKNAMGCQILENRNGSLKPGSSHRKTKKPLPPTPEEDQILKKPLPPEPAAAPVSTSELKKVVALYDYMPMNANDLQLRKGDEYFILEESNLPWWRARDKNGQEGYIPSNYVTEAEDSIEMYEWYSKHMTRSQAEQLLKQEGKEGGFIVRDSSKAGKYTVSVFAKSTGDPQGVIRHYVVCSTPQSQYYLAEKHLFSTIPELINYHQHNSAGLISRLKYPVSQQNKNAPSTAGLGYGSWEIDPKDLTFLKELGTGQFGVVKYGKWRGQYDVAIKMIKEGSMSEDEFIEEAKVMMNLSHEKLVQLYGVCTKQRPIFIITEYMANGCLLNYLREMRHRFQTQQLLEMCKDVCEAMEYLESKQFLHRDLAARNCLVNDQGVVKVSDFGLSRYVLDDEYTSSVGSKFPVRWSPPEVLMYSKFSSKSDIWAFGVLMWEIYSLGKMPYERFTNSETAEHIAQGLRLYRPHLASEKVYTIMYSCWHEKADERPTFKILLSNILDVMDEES
Description: NAMALWA and Jurkat cell lines were purchased from ATCC and cultured according to supplier guidelines at 37° C. […] Wild-type and C481S BTK XLA cell lines were cultured as previously described (39). Written, informed consent was obtained prior to the collection of cells from CLL patients using the IWCLL2008 criteria. Isolation of mononuclear cells from peripheral blood was prepared using density gradient centrifugation. B-cells were then negatively selected ([…] Technologies). […] They were maintained at 37° C. in 5% CO2.
Lysates were spun at 15,000×g for 10 min at 4° C. and supernatant was quantified for total protein content using the Pierce BCA Protein Assay (Thermo Fisher Scientific).
as §1, with “Primary antibodies used were: Anti-actin antibody (Cat. #MA 1-744) purchased from ThermoFisher Scientific; anti-BTK (Cat. #8547), anti-pBTK (Y223, Cat. #5082), anti-ITK (Cat. #2380), anti-GAPDH (Cat. #5179), anti-IKZF1 (Cat. #9034), and anti-IKZF3 (Cat. #15103) antibodies purchased from Cell Signaling Technology.” left out

T1 sequence (P21860 20-1342): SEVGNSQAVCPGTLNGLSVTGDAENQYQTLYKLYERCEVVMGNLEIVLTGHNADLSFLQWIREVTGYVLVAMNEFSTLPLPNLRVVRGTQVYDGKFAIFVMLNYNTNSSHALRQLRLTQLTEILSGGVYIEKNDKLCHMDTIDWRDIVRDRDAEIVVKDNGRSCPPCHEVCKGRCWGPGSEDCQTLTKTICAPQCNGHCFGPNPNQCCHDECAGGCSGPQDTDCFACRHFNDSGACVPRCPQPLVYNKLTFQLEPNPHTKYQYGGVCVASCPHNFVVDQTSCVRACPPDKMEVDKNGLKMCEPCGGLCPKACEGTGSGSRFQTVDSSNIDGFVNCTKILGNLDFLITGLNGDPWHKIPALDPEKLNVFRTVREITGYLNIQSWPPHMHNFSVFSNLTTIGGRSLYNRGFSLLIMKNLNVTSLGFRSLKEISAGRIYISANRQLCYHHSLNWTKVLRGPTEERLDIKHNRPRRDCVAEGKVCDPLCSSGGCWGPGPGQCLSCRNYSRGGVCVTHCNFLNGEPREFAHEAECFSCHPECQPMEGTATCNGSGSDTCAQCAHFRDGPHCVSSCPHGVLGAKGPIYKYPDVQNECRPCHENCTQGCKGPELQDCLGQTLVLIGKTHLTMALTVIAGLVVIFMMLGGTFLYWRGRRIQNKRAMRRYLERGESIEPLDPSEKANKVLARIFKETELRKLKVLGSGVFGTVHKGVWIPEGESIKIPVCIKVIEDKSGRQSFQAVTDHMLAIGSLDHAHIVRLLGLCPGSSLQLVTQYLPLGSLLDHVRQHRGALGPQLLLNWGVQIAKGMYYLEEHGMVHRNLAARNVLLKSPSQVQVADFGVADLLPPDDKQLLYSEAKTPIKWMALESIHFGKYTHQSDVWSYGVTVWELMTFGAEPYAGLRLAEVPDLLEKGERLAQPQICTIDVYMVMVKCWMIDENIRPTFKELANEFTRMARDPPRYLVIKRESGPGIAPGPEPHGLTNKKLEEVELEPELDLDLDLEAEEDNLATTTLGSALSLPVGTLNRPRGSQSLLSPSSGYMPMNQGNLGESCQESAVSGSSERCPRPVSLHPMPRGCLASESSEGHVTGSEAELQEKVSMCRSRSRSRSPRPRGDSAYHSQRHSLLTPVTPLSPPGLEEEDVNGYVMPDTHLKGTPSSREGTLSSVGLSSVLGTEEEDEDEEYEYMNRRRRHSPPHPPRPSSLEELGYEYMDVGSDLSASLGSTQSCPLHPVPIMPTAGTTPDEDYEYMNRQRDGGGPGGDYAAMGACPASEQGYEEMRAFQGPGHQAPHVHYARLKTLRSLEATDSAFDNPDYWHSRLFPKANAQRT

Cc1ncsc1-c1ccc(CNC(=O)[C@@H]2C[C@@H](O)CN2C(=O)[C@@H](NC(=O)COCCOCCOCCCCCCN2CCC(n3nc(-c4ccc(Oc5ccccc5)cc4)c4c(N)ncnc43)CC2)C(C)(C)C)cc1 [Compound 110, (2S,4R)-1-((S)-19-(4-(4-amino-3-(4-phenoxyphenyl)-1H-pyrazolo[3,4-d]pyrimidin-1-yl)piperidin-1-yl)-2,2-dimethyl-5-oxo-7,10,13-trioxa-4-azanonadecanecarbonyl)-4-hydroxy-N-(4-(4-methylthiazol-5-yl)benzyl)pyrrolidine-2-carboxamide]
HER3 Degradation (HER3): No
DC50 (BTK; NAMALWA cells): No Degradation

Nc1ncnc2c1c(-c1ccc(Oc3ccccc3)cc1)nn2C1CCN(CCOCCOCCOc2ccc3c(c2)CN(C2CCC(=O)NC2=O)C3=O)CC1 (centres unmarked) [Compound 135, 3-(5-(2-(2-(2-(4-(4-amino-3-(4-phenoxyphenyl)-1H-pyrazolo[3,4-d]pyrimidin-1-yl)piperidin-1-yl)ethoxy)ethoxy)ethoxy)-1-oxoisoindolin-2-yl)piperidine-2,6-dione]
DC50 (BTK; NAMALWA cells, read-out: DC50): 7 nM
Max (BTK; concentration not given): >99%

Cc1ncsc1-c1ccc(CNC(=O)[C@@H]2C[C@@H](O)CN2C(=O)[C@@H](NC(=O)CCCCCOCCCCCOCCCCCCN2CCC(n3nc(-c4ccc(Oc5ccccc5)cc4)c4c(N)ncnc43)CC2)C(C)(C)C)cc1 [Compound 117, (2S,4R)-1-((S)-2-(6-(5-(6-(4-(4-amino-3-(4-phenoxyphenyl)-1H-pyrazolo[3,4-d]pyrimidin-1-yl)piperidin-1-yl)hexyloxy)pentyloxy)hexanamido)-3,3-dimethylbutanoyl)-4-hydroxy-N-(4-(4-methylthiazol-5-yl)benzyl)pyrrolidine-2-carboxamide]
HER3 Degradation (HER3): No
DC50 (BTK; NAMALWA cells): No Degradation

CN1C(=O)CCC(N2C(=O)c3ccc(NC(=O)COCCOCCN4CCC(n5nc(-c6ccc(Oc7ccccc7)cc6)c6c(N)ncnc65)CC4)cc3C2=O)C1=O (centres unmarked) [Compound 130, 2-(2-(2-(4-(4-amino-3-(4-phenoxyphenyl)-1H-pyrazolo[3,4-d]pyrimidin-1-yl)piperidin-1-yl)ethoxy)ethoxy)-N-(2-(1-methyl-2,6-dioxopiperidin-3-yl)-1,3-dioxoisoindolin-5-yl)acetamide]
ability to degrade BTK (BTK; NAMALWA cells, dose escalation, 24 h): neither ibrutinib nor Compound 130 were able to induce degradation of BTK

Cc1ncsc1-c1ccc(CNC(=O)[C@@H]2C[C@@H](O)CN2C(=O)[C@H](C(C)C)N2Cc3ccccc3C2=O)c(OCCCCOCCCCN2CCC(n3nc(-c4ccc(Oc5ccccc5)cc4)c4c(N)ncnc43)CC2)c1 [Compound 127, (2S,4R)—N-(2-(4-(4-(4-(4-amino-3-(4-phenoxyphenyl)-1H-pyrazolo[3,4-d]pyrimidin-1-yl)piperidin-1-yl)butoxy)butoxy)-4-(4-methylthiazol-5-yl)benzyl)-4-hydroxy-1-((S)-3-methyl-2-(1-oxoisoindolin-2-yl)butanoyl)pyrrolidine-2-carboxamide]
DC50 (BTK; NAMALWA cells, read-out: DC50): 162 nM
Max (BTK; concentration not given): 50%

Cc1ncsc1-c1ccc(CNC(=O)[C@@H]2C[C@@H](O)CN2C(=O)[C@@H](NC(=O)CCCCCOCCOCCCCCCN2CCC(n3nc(-c4ccc(Oc5ccccc5)cc4)c4c(N)ncnc43)CC2)C(C)(C)C)cc1 [Compound 112, (2S,4R)-1-((S)-2-(6-(2-(6-(4-(4-amino-3-(4-phenoxyphenyl)-1H-pyrazolo[3,4-d]pyrimidin-1-yl)piperidin-1-yl)hexyloxy)ethoxy)hexanamido)-3,3-dimethylbutanoyl)-4-hydroxy-N-(4-(4-methylthiazol-5-yl)benzyl)pyrrolidine-2-carboxamide]
HER3 Degradation (HER3): No
DC50 (BTK; NAMALWA cells): No Degradation

Nc1ncnc2c1c(-c1ccc(Oc3ccccc3)cc1)nn2C1CCN(CCOCCOCCOc2ccc3c(c2)C(=O)N(C2CCC(=O)NC2=O)C3=O)CC1 (centres unmarked) [Compound 131, 5-(2-(2-(2-(4-(4-amino-3-(4-phenoxyphenyl)-1H-pyrazolo[3,4-d]pyrimidin-1-yl)piperidin-1-yl)ethoxy)ethoxy)ethoxy)-2-(2,6-dioxopiperidin-3-yl)isoindoline-1,3-dione]
DC50 (BTK; NAMALWA cells, read-out: DC50): 13 nM
Max (BTK; concentration not given): >99%

Cc1ncsc1-c1ccc(CNC(=O)[C@@H]2C[C@@H](O)CN2C(=O)[C@@H](NC(=O)COCCOCCOCCOCCOCCCCCCN2CCC(n3nc(-c4ccc(Oc5ccccc5)cc4)c4c(N)ncnc43)CC2)C(C)(C)C)cc1 [Compound 118, (2S,4R)-1-((S)-25-(4-(4-amino-3-(4-phenoxyphenyl)-1H-pyrazolo[3,4-d]pyrimidin-1-yl)piperidin-1-yl)-2,2-dimethyl-5-oxo-7,10,13,16,19-pentaoxa-4-azapentacosanecarbonyl)-4-hydroxy-N-(4-(4-methylthiazol-5-yl)benzyl)pyrrolidine-2-carboxamide]
HER3 Degradation (HER3): No
DC50 (BTK; NAMALWA cells, read-out: DC50): 231 nM
Max (BTK; at 1.0 μM, NAMALWA cells): 40%

C=CC(=O)Nc1cc(-c2nn(C3CCN(CCCCCCOCCOCCOCCOCC(=O)N[C@H](C(=O)N4C[C@H](O)C[C@H]4C(=O)NCc4ccc(-c5scnc5C)cc4)C(C)(C)C)CC3)c3ncnc(N)c23)ccc1Oc1ccccc1 [Compound 125, (2S,4R)-1-((S)-22-(4-(3-(3-acrylamido-4-phenoxyphenyl)-4-amino-1H-pyrazolo[3,4-d]pyrimidin-1-yl)piperidin-1-yl)-2,2-dimethyl-5-oxo-7,10,13,16-tetraoxa-4-azadocosanecarbonyl)-4-hydroxy-N-(4-(4-methylthiazol-5-yl)benzyl)pyrrolidine-2-carboxamide]
HER3 Degradation (HER3): No

C=CC(=O)Nc1cc(-c2nn(C3CCN(CCCCCCOCCOCCOCC(=O)N[C@H](C(=O)N4C[C@H](O)C[C@H]4C(=O)NCc4ccc(-c5scnc5C)cc4)C(C)(C)C)CC3)c3ncnc(N)c23)ccc1Oc1ccccc1 [Compound 123, (2S,4R)-1-((S)-19-(4-(3-(3-acrylamido-4-phenoxyphenyl)-4-amino-1H-pyrazolo[3,4-d]pyrimidin-1-yl)piperidin-1-yl)-2,2-dimethyl-5-oxo-7,10,13-trioxa-4-azanonadecanecarbonyl)-4-hydroxy-N-(4-(4-methylthiazol-5-yl)benzyl)pyrrolidine-2-carboxamide]
HER3 Degradation (HER3): No

C=CC(=O)Nc1cc(-c2nn(C3CCN(CCCCCCOCCOCCOCCOCCOCC(=O)N[C@H](C(=O)N4C[C@H](O)C[C@H]4C(=O)NCc4ccc(-c5scnc5C)cc4)C(C)(C)C)CC3)c3ncnc(N)c23)ccc1Oc1ccccc1 [Compound 126, (2S,4R)-1-((S)-25-(4-(3-(3-acrylamido-4-phenoxyphenyl)-4-amino-1H-pyrazolo[3,4-d]pyrimidin-1-yl)piperidin-1-yl)-2,2-dimethyl-5-oxo-7,10,13,16,19-pentaoxa-4-azapentacosanecarbonyl)-4-hydroxy-N-(4-(4-methylthiazol-5-yl)benzyl)pyrrolidine-2-carboxamide]
HER3 Degradation (HER3): No

C=CC(=O)Nc1cc(-c2nn(C3CCN(CCCCCCOCCCCCOCC(=O)N[C@H](C(=O)N4C[C@H](O)C[C@H]4C(=O)NCc4ccc(-c5scnc5C)cc4)C(C)(C)C)CC3)c3ncnc(N)c23)ccc1Oc1ccccc1 [Compound 124, (2S,4R)-1-((S)-2-(2-(5-(6-(4-(3-(3-acrylamido-4-phenoxyphenyl)-4-amino-1H-pyrazolo[3,4-d]pyrimidin-1-yl)piperidin-1-yl)hexyloxy)pentyloxy)acetamido)-3,3-dimethylbutanoyl)-4-hydroxy-N-(4-(4-methylthiazol-5-yl)benzyl)pyrrolidine-2-carboxamide]
HER3 Degradation (HER3): No

Reference: US11028088B2, “Modulators of BTK proteolysis and methods of use” (Yale University, priority 2018, dated 2021)
